“And” between values parts separate entries of the source, which are not always exact repeats. Equal entries are not always repeated. Where two headings read alike, the source gives them in different places. Some results are limits rather than exact numbers.

Broadly, the IC50 is the concentration needed to halve the response being measured. Low readings indicate greater potency, high ones weaker potency. The AUC(0-t) is the area under the concentration-time curve up to a stated or last time point. A low value points to less exposure. Broadly, the Tmax is the time from dosing to the highest level. In general, half-life refers to the time in which the quantity being followed falls by half. One may read the Cmax as the peak of the concentration-time curve.

One data set has as its target T1, CYP 1A2 (Homo sapiens, UniProt P05177).
T1 sequence (P05177 1-516): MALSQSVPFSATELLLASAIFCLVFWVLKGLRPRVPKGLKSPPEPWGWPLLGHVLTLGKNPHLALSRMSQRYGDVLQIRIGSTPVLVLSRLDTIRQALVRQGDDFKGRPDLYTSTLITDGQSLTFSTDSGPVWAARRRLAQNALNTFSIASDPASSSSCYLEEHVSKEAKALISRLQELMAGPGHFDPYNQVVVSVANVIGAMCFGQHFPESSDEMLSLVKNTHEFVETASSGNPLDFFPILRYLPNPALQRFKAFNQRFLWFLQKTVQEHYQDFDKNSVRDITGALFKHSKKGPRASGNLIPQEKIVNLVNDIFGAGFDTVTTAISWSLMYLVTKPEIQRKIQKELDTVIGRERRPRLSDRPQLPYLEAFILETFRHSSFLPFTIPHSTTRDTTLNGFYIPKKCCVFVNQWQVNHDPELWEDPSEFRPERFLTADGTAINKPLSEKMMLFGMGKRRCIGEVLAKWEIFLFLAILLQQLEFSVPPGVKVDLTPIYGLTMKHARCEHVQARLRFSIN
The data set can be described thus: CYP inhibition assay in human liver microsomes. In kind it is in vitro ADME.

The target of another data set is T2, CYP 2A6 (Homo sapiens, UniProt P11509).
T2 sequence (P11509 1-494): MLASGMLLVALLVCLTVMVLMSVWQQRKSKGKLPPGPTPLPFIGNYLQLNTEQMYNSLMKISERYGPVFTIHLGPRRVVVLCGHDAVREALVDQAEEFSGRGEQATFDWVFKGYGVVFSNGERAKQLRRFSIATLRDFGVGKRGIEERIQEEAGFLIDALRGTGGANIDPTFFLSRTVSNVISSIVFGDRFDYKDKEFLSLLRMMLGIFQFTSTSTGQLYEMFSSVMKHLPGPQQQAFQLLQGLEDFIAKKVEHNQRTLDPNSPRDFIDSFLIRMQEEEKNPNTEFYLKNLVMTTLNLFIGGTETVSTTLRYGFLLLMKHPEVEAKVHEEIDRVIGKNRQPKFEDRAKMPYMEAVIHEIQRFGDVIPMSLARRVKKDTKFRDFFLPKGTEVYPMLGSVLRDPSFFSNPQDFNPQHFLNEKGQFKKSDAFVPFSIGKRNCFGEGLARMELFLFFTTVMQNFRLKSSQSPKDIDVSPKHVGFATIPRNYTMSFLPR
The experiment in a line: CYP inhibition assay in human liver microsomes. In kind it is in vitro ADME. Background: Liver microsomes are a subcellular fraction often used to study metabolism.

Another data set concerns the target T3, CYP 2B6 (Homo sapiens, UniProt P20813).
T3 sequence (P20813 1-491): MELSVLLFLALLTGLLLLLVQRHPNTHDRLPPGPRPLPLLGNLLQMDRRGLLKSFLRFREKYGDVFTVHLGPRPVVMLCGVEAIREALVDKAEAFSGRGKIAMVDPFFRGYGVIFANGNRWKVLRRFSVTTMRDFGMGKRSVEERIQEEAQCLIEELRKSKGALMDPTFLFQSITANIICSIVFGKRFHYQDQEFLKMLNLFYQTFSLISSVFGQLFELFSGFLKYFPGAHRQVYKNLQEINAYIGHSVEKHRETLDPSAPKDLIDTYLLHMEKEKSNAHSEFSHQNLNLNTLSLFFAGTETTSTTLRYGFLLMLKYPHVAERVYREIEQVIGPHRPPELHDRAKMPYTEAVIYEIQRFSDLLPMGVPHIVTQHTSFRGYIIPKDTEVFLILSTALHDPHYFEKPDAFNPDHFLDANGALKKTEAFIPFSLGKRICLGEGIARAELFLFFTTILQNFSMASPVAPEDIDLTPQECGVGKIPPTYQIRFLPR
The data set can be described thus: CYP inhibition assay in human liver microsomes. In kind it is in vitro ADME. Conditions: IC50 CYP 2B6, human liver microsomes; duplicate incubations, both values printed.

In a further data set the target is T4, CYP 2C8 (Homo sapiens, UniProt P10632).
T4 sequence (P10632 1-490): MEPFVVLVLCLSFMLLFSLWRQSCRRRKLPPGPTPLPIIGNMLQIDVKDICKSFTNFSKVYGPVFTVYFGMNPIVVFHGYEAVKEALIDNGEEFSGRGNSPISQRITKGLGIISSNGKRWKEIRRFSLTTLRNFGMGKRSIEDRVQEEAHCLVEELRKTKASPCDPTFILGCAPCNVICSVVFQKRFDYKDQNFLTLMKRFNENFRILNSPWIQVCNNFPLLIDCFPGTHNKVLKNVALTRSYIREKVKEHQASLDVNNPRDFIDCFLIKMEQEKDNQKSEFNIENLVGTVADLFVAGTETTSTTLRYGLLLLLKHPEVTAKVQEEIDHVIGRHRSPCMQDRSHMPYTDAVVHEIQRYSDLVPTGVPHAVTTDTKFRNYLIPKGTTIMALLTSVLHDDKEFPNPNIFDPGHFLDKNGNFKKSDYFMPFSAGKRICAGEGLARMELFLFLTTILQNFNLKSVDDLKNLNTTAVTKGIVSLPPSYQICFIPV
The experiment in a line: CYP inhibition assay in human liver microsomes. In kind it is in vitro ADME.

In the next data set the target is CYP 2C9 (Homo sapiens, UniProt P11712). The experiment in a line: CYP inhibition assay in human liver microsomes. The format is in vitro ADME.
In another data set the target is CYP 2D6 (Homo sapiens, UniProt P10635). The experiment in a line: CYP inhibition assay in human liver microsomes. In kind it is in vitro ADME.
A further data set concerns the target CYP 2E1 (Homo sapiens, UniProt P05181). The experiment in a line: CYP inhibition assay in human liver microsomes. The format is in vitro ADME.
The target of a further data set is CYP3A4 (Homo sapiens, UniProt P08684). The data set can be described thus: CYP inhibition assay in human liver microsomes. In kind it is in vitro ADME. Conditions: mean value given in text, HLM.
The nature of data set [1]: Single-dose oral PK screening of Nos with dietary ingredients. The format is in vivo, male CD-1 mice.
A further data set in a line: Repeated-dose. In kind it is in vivo, male CD-1 mice. As to conditions: for AUC(0-t): AUClast.
Data set [2] is described as follows: Microsomal stability assay of Nos. In kind it is in vitro ADME, CD-1 mouse. Conditions: Noscapine 10 μM alone; n=2.
A short description of data set [3]: Microsomal stability assay of Nos. The format is in vitro ADME, Sprague-Dawley rat. Conditions: Noscapine 10 μM alone; n=2.
Data set [4] can be described thus: Microsomal stability assay of Nos. The format is in vitro ADME, Beagle dog. Conditions: Noscapine 10 μM alone; n=2.
The nature of data set [5]: Microsomal stability assay of Nos. The format is in vitro ADME, human. Conditions: Noscapine 10 μM alone; n=2.
Data set [6] can be described thus: Clinical chemistry parameters after 7 days oral dosing. In kind it is in vivo, mice. As to conditions: hepatic and renal serum markers.
The conditions of data set [7]: cited from earlier work.
The next data set concerns UGT. The experiment in a line: In vitro UGT inhibition in mouse liver. As to conditions: UGT inhibition experiments, MLM and MIM, Figure 7.
Setting [8] is: IC50 CYP 1A2, human liver microsomes, duplicate incubations, both values printed.
[9] abbreviates: IC50 CYP 2C8, human liver microsomes, duplicate incubations, both values printed.
Setting [10] is: IC50 CYP 2C9, human liver microsomes, duplicate incubations, both values printed.
Where [11] appears, read: male, CD-1, mouse, plasma, po, 50 mg/kg.

Sequence of CYP 2C9 (P11712 whole entry): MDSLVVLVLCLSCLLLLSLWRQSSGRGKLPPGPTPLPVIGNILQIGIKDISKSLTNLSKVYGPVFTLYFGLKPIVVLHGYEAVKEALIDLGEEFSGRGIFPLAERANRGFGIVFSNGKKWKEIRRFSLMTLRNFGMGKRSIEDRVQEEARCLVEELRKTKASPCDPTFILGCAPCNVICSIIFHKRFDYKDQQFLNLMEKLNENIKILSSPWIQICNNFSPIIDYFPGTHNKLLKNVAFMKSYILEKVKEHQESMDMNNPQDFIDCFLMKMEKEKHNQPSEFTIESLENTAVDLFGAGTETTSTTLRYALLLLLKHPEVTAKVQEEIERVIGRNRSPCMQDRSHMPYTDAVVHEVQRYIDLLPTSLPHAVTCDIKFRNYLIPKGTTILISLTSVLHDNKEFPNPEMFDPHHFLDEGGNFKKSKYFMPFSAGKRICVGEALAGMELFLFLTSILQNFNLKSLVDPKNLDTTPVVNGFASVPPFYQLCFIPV
Sequence of CYP 2E1 (P05181 whole entry): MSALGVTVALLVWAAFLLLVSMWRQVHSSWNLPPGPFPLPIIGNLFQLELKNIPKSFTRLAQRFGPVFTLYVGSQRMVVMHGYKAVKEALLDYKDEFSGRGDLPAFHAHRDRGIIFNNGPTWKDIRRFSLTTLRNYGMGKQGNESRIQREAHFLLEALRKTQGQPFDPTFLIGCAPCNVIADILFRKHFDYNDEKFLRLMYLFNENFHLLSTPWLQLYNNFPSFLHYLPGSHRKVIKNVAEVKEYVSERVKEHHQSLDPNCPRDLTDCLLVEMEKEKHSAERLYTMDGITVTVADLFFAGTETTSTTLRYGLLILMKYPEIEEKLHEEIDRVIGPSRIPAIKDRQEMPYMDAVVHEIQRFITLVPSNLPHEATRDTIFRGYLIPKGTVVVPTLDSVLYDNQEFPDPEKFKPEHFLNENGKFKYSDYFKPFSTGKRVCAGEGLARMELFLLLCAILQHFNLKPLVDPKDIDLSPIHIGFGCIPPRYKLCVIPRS
Sequence of CYP 2D6 (P10635 whole entry): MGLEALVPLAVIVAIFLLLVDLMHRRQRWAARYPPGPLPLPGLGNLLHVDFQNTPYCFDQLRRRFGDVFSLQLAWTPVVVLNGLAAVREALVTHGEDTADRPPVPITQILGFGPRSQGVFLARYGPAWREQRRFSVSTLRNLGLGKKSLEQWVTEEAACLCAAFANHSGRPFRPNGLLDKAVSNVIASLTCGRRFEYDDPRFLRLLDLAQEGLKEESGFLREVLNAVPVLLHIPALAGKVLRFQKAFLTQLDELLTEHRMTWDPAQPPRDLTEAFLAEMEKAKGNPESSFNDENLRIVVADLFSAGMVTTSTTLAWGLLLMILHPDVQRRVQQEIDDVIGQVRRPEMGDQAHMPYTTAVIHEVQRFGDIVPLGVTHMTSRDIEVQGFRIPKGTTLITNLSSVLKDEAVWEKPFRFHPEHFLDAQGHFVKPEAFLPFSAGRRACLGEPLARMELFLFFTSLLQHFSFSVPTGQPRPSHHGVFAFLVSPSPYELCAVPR
Sequence of CYP3A4 (P08684 2-503 limits assumed): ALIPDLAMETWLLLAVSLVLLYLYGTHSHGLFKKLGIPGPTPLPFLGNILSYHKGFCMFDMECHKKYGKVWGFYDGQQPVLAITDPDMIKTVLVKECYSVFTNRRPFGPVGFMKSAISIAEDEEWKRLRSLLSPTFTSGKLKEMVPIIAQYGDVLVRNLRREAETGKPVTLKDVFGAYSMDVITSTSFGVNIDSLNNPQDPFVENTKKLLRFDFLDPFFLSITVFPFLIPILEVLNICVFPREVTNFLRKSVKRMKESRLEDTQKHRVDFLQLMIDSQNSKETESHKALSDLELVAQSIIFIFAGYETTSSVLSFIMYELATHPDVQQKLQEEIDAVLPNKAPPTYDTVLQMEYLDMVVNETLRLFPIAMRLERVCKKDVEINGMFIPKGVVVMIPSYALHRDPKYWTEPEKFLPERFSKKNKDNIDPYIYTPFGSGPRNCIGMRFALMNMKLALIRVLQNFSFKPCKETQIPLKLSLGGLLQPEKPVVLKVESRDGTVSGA

With `COc1cc(CNC(=O)CCCC/C=C/C(C)C)ccc1O` [Cap, capsaicin], the IC50 was 3.1 µM and 3.5 µM against CYP 1A2 (setting [8]); 3.3 µM at CYP 1A2 (mean IC50 CYP1A2, mean value given in text, HLM); greater than 100 µM against CYP 2A6; 26 µM and 24 µM against CYP 2B6; 6.3 µM and 5.9 µM on CYP 2C8 (setting [9]); 6.1 µM against CYP 2C8 (mean IC50 CYP2C8, mean value given in text, HLM). For the same compound, the IC50 at CYP 2C9 was 3.7 µM; against CYP 2C9 (setting [10]), 4.5 µM; at CYP 2C9 (mean IC50 CYP2C9, mean value given in text, HLM), 4.1 µM; against CYP 2D6, 68 µM; at CYP 2E1, greater than 100 µM; against CYP3A4 (mean IC50 CYP3A4, midazolam as substrate), 16 µM. The IC50 at CYP3A4 (mean IC50 CYP3A4, testosterone as substrate) was found to be 9.7 µM.
Regarding `C=CCc1ccc(O)c(OC)c1` [Eu, eugenol], in [1] (Nos alone or co-dosed with the named dietary agent, single oral dose), the “Tmax of Nos” value is given as “remained unaffected”.
For the compound `COc1ccc2c(c1OC)C(=O)O[C@@H]2[C@H]1c2c(cc3c(c2OC)OCO3)CCN1C` [Nos, Noscapine], the AUC(0-t) in [1] (setting [11]) was determined as 1.92 µg·h/mL; in the data set “Repeated-dose” (male, CD-1, mouse, plasma, po, 50 mg/kg, Day 1, noscapine, oral gavage Nos 50 mg/kg bw, Cap/Pip 5 mg/kg bw, CD-1 mice), 1.02 µg·h/mL; in the data set “Repeated-dose” (male, CD-1, mouse, plasma, po, 50 mg/kg, Day 7, noscapine, daily oral gavage Nos 50 mg/kg bw, Cap/Pip 5 mg/kg bw, CD-1 mice) it was 0.508 µg·h/mL. In addition, the Tmax in [1] (setting [11]) stood at 4.8 min. The half-life is less than 60 min in data set [1] (setting [11]) and less than 120 min in data set [7] (ref Aneja et al., 2007). Moreover, the AUClast was 1.02376 µg·h/mL in “Repeated-dose” (Day 1, noscapine, oral gavage Nos 50 mg/kg bw, Cap/Pip 5 mg/kg bw, CD-1 mice) and 0.50774 µg·h/mL in the data set “Repeated-dose” (Day 7, noscapine, daily oral gavage Nos 50 mg/kg bw, Cap/Pip 5 mg/kg bw, CD-1 mice). Moreover, the Cmax in “Repeated-dose” (Day 1, noscapine, oral gavage Nos 50 mg/kg bw, Cap/Pip 5 mg/kg bw, CD-1 mice, mean ± SD) was 3.08737 ± 1.23227 µg/mL; in the data set “Repeated-dose” (Day 7, noscapine, daily oral gavage Nos 50 mg/kg bw, Cap/Pip 5 mg/kg bw, CD-1 mice, mean ± SD), 0.68404 ± 0.03177 µg/mL. The Tmax at 1 day in the data set “Repeated-dose” (setting [11]) stood at 10.2 min. The Tmax at 7 days in the data set “Repeated-dose” (setting [11]) was determined as 15 min. The compound also showed a Cmax at 1 day in “Repeated-dose” (male, CD-1, mouse, plasma, po, 50 mg/kg, Cmax, Day 1, noscapine, oral gavage Nos 50 mg/kg bw, Cap/Pip 5 mg/kg bw, CD-1 mice, mean ± SD) of 3.09 µg/mL. In the data set “Repeated-dose” (male, CD-1, mouse, plasma, po, 50 mg/kg, Cmax, Day 7, noscapine, daily oral gavage Nos 50 mg/kg bw, Cap/Pip 5 mg/kg bw, CD-1 mice, mean ± SD), this compound came in with a peak concentration (Cmax) at 7 days of 0.684 µg/mL. Besides, the “decrease in exposure of Nos on day 7 compared to day 1” value in “Repeated-dose” (repeated oral dosing for seven days) is reported as “half”. The IC50 was greater than 100 µM against CYP 1A2 (setting [8]); greater than 100 µM against CYP 2A6; greater than 100 µM on CYP 2B6; 10 µM and 8.4 µM at CYP 2C8 (setting [9]); 18 µM and 24 µM against CYP 2C9 (setting [10]); greater than 100 µM against CYP 2D6. In addition, the IC50 on CYP 2E1 is greater than 100 µM. Moreover, the “Intrinsic Clearance MLM” value in data set [2] stood at 6.4 mL/min/g liver. Moreover, the “Intrinsic Clearance RLM” value in data set [3] was 4.0 mL/min/g liver. In data set [4], the “Intrinsic Clearance DLM” value worked out at 1.9 mL/min/g liver. Besides, in data set [5], the “Intrinsic Clearance HLM” value was 1.8 mL/min/g liver. Besides, the “clinical chemistry parameters vs vehicle-treated mice” value in [6] was “did not affect”. In addition, the bioavailability result in data set [7] (mice, ref Aneja et al., 2007) is given as “around 32%”. Also, in data set [7] (mouse, reported, no reference given), the Oral bioavailability is recorded as 30%.
In the case of `O=C(/C=C/C=C/c1ccc2c(c1)OCO2)N1CCCCC1` [Pip, piperine], the IC50 on CYP 1A2 (setting [8]) is 35 µM and 38 µM; against CYP 2A6, greater than 100 µM; on CYP 2B6, 87 µM and 90 µM; against CYP 2C8 (setting [9]) it was 84 µM and 78 µM; against CYP 2C9, 54 µM; against CYP 2D6 it was greater than 100 µM. Besides, the IC50 on CYP 2E1 is greater than 100 µM. For the same compound, the “inhibitory effect on the rate of metabolism of Nos” value with UGT was “did not reveal significant inhibitory effects”.

Values taken from paper PMC4516653 (European journal of pharmaceutical sciences : official …, 2015).
